Source: PubChem BioAssay (NCI)
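Values below derive from 48-hour exposures of cells grown in 96-well plates, with endpoints linearly interpolated between the two concentrations bracketing the appropriate inhibition level. GI50 = concentration required for 50% inhibition of growth. At the TGI there is no net growth.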

Tests used:
Test in all cases: DTP human tumour cell line panel, 48 h
[1] = test system: M14 melanoma
[2] = test system: UO-31 renal
[3] = test system: MALME-3M melanoma
[4] = test system: EKVX NSCLC
[5] = test system: ACHN renal
[6] = test system: HT29 colon
[7] = test system: SR leukemia
[8] = test system: SK-MEL-5 melanoma
[9] = test system: KM12 colon
[10] = test system: HCC-2998 colon
[11] = test system: SW-620 colon
[12] = test system: SF-295 CNS
[13] = test system: OVCAR-8 ovarian
[14] = test system: NCI-H460 lung
[15] = test system: COLO 205 colon
[16] = test system: K-562 leukemia

Structure (SMILES) | TGI [1] [µM] | TGI [2] [µM] | TGI [3] [µM] | TGI [4] [µM] | TGI [5] [µM] | TGI [6] [µM] | TGI [7] [µM] | TGI [8] [µM] | TGI [9] [µM] | TGI [10] [µM] | TGI [11] [µM] | TGI [12] [µM] | TGI [13] [µM] | TGI [14] [µM] | TGI [15] [µM] | TGI [16] [µM] | GI50 [3] [µM] | GI50 [4] [µM] | GI50 [9] [µM] | GI50 [15] [µM]
CCN(CC)CCNCc1cc(Cl)cc2c1OCOC2 | > 10 | > 10 | > 10 | > 10 | > 10 | > 10 | > 10 | > 10 | > 10 | > 10 | > 10 | > 10 | > 10 | > 10 | > 10 | > 10 |  |  |  | 
COc1cccc(N2C(=O)C3c4[nH]c5ccc(C)cc5c4C4CCC(C(C)(C)C)CC4C3C2=O)c1 (configuration not stated) | > 10 | > 10 | > 10 | > 10 | > 10 | > 10 | 4.03 | > 10 | > 10 | > 10 | > 10 | > 10 | 5.85 | 4.43 | > 10 | 7.67 |  |  |  | 
O=C(N/N=C/c1cc(Cl)cc(Cl)c1O)c1ccccc1O | 4.07 | 29.5 | 11.6 | > 100 | 5.57 | 26.1 | > 100 | 5.38 | 34.7 | 14.6 | 21.5 | 11.3 | 13.9 | 18.8 | > 100 | > 100 | 2.8 | 1.71 | 3.72 | 11.2
